In patent publication US20080019916A1, “Methods and pharmaceuticals for treating muscle insulin resistance and related conditions” (University of Tasmania, priority 2001, published 2008):

Experiments:
anaesthetised rats = experiment: hyperinsulinaemic euglycaemic clamp in anaesthetised rats with 1-MX metabolism, glucose uptake and haemodynamic monitoring; format: in vivo, rat
Source text: From present knowledge there would appear to be at least three possible mechanisms to account for insulin-mediated capillary recruitment in skeletal muscle. Firstly and most likely, insulin may act at insulin receptors on endothelial cells and an IRS-1/2, PI3-K pathway to activate eNOS to produce NO, which in turn permeates adjacent vascular smooth muscle cells to activate soluble guanylyl cyclase and lower the vascular tone of pre-capillary sphincters. In favour of this mechanism is the fact that this process is NO-dependent and is thus consistent with our preliminary data (FIG. 4). There is compelling evidence that insulin acts directly through insulin receptors on endothelial cells to control nutritive capillary flow in skin. Secondly, insulin may act at insulin receptors on the vascular smooth muscle cells (22) via IRS-1/2, PI3-K, NOS, cGMP, MBP (myosin bound phosphatase) sequence to cause vasorelaxation. This mechanism would be NO-dependent, free of endothelial cell involvement in signalling and attractive as TNFα is known to inhibit insulin signalling in vascular smooth muscle cells, although to date this has been restricted to the ERK1/2 activation step (23). This mechanism would also lead ultimately to the activation of guanylyl cyclase and the production of cyclic GMP. Thirdly, insulin may act at insulin receptors on skeletal muscle to activate glucose transport and metabolism by the IRS-1/2, PI3-K, GLUT4 pathway to produce a metabolite (e.g. adenosine) that permeates adjacent tissue to react with appropriate receptors on endothelial/vascular smooth muscle cells to result in vasorelaxation. […] FIG. 4. The effect of L-NAME on insulin mediated increases in hindleg glucose uptake (FIG. 4a) and 1-MX metabolism (FIG. 4b) was examined. Euglycemic clamp conditions (10 mU/min/kg) were conducted for 2 h. […] This latter mechanism would resemble that occurring in exercise where vasodilatory metabolite(s) are released locally by working muscle to facilitate local blood flow and would be inhibited by agents (e.g. glucosamine) that inhibit muscle glucose metabolism. All three mechanisms should be wortmannin sensitive as PI3-K is expected to be involved. A variant of this third mechanism is where a form of NOS is activated in skeletal muscle independently of glucose metabolism. NO could then permeate neighbouring tissue as above. The terminal half of this fourth possible mechanism should be simulated by AMPK activation with AICAR addition (24). Overall, given that the mechanism of capillary recruitment by insulin in rat muscle is NO-dependent (FIG. 4) and that NO acts by producing cyclic GMP, agents that might enhance capillary recruitment by insulin should be targeted to enhance insulin's production of NO or cyclic GMP. In principle, 1-methylxanthine (1-MX) is an exogenous substrate for an enzyme located predominantly in the nutritive capillary endothelial cells (much less so in the non-nutritive route and myocytes). Consequently, passage of blood borne 1-MX through the nutritive vascular route leads to its conversion to the product 1-methylurate (1-MU). Chromatographic analysis of arterial and venous samples for 1-MX and 1-MU together with the total blood flow rate over the muscle bed allows the calculation of 1-MX metabolism. A number of our studies using the perfused rat hindlimb have shown tight correlation between nutritive flow (or the proportion of nutritive/non-nutritive flow) and 1-MX metabolism (12,13). Assay of new drugs acting to increase capillary recruitment in the presence of endogenous or exogenous insulin. This is done in an optional two tier manner, firstly in anaesthetized rats using the hyperinsulinaemic euglycaemic clamp (14) and secondly, in human forearm using a localized hyperinsulinaemic euglycaemic clamp (17). The initial testing in rats is optional, but allows rapid identification of those agents likely to be effective in humans. […]

[1] = system: skeletal muscle of the rat hindlimb; experiment: contrast enhanced ultrasound/microbubbles (CEU) measurement of capillary blood volume in rat hindlimb muscle; format: in vivo
Source text: A second method was devised using the latest technologies in ultrasound. The ultrasound method relies on the increased echogenicity of albumin microbubbles which are continuously infused intravenously during data acquisition. The acoustic signal that is generated from the microbubbles when exposed to ultrasound produces tissue opacification which is proportional to the number of microbubbles within the ultrasound beam. Using harmonic pulsing methods essentially all microbubbles within the ultrasound beam are destroyed in response to a single pulse of high-energy ultrasound and an image is obtained. In the time interval between subsequent pulsing episodes, microbubbles flowing into the tissue are replenished within the beam and affect the intensity of the signal from the next high energy pulse. Repeating this process with pulse delays between 50 msec and 20 sec, the beam will be fully replenished and further increases in the time between each pulsing interval will not produce a change to tissue opacification. The rate of microbubble reappearance within the ultrasound beam provides an indication of capillary velocity and the degree of tissue opacification provides a measurement of capillary blood volume (CBV). Images are background-subtracted from images from a pulsing interval of 1000 ms which represents the replenishment of arteries and arterioles thus providing a measurement of capillary flow. The plateau tissue opacification (measured as videointensity) is the determination of capillary blood volume. Using this approach, changes in capillary blood volume in response to insulin and exercise have recently been assessed in the skeletal muscle of the rat hindlimb in vivo and compared to data obtained using 1-MX metabolism (ref 16; FIG. 1). FIG. 1. Comparison of the effect of saline, insulin (3 mU/min/kg, euglycemic clamp×120 min) or muscle contraction (2 Hz, 1 ms duration, monophasic square waves×10 min) on capillary blood volume as measured by microbubble videointensity using contrast enhanced ultrasound (FIG. 1a) or the hindlimb extraction of 1-MX (FIG. 1b) measured under identical conditions. […] Exercise is regarded by most physiologists as a “bench-mark” stimulus for capillary recruitment. […] A particular advantage of the ultrasound method is that it is relatively non-invasive and is suitable for human use (17). This opens up possibilities for its use in diagnosis in terms of impaired capillary recruitment in response to insulin and the monitoring of outcomes from therapeutic interventions that might act by increasing capillary recruitment. The ultrasound method relies on the increased echogenicity of albumin microbubbles that are continuously infused intravenously during data acquisition. […]

[2] = system: skeletal muscle of the rat hindlimb; conditions: physiologic doses of insulin (3 mU/min/kg clamp); cited from earlier work
[3] = infused with sub-maximal physiologic dose of insulin, vs insulin alone, FIG. 5b
[4] = insulin 3 mU/min/kg, anesthetized rat, before vs after, FIG. 7c

## NC(=O)c1ncn([C@@H]2O[C@H](CO)[C@@H](O)[C@H]2O)c1N [AICAR, 5-aminoimidazole-4-carboxamide-1-β-D-ribofuranoside]
Anaesthetised rats; infused with insulin, vs insulin alone, P<0.05, FIG. 6b
  insulin-mediated hindleg glucose uptake: markedly enhanced
[1]; infused alone, without insulin, FIG. 6a
  capillary recruitment as indicated by CEU (capillary blood volume): recruited capillary flow on its own

## COC(=O)[C@@H](N)CCCNC(=N)N[N+](=O)[O-] [L-NAME]
Anaesthetised rats; euglycemic clamp 10 mU/min/kg, 2 h, n=5
  insulin-mediated increase in femoral blood flow (FBF): blocked the increase in FBF
Anaesthetised rats; euglycemic clamp 10 mU/min/kg, 2 h, n=5, raised from 100±4
  mean arterial blood pressure: 125±5 mmHg

## CCCOc1ccccc1-c1nc(=O)c2[nH]nnc2[nH]1 [Zaprinast, 1,4-dihydro-5-(2-propoxyphenyl)-7H-1,2,3-triazolo(4,5-d)pyrimidin-7-one]
Anaesthetised rats; infused with sub-maximal physiologic dose of insulin, vs insulin alone, FIG. 5a
  insulin-mediated capillary recruitment (hindleg 1-MX metabolism): significantly (P<0.05) enhanced
Anaesthetised rats; [3]
  insulin-mediated glucose appearance (Ra): significantly (P<0.05) enhanced
  insulin-mediated glucose disposal (Rd): significantly (P<0.05) enhanced

## TNFα
Anaesthetised rats; rats treated with the cytokine in vivo
  effect on insulin-mediated capillary recruitment: completely block

## insulin: hormone infused in euglycemic clamp
[1]; euglycemic insulin clamp 3 mU/min/kg, 120 min, vs baseline/saline, FIG. 1a
  capillary blood volume (microbubble videointensity, CEU): marked increases
[1]; [4]
  plateau videointensity (A), microvascular volume: clearly higher
  rate of microvascular filling (β): no change
[2]
  increase in capillary blood volume: 2-3 fold
